# Key:
# GABAB receptor = target: T1, GABAB receptor (Rattus norvegicus, UniProt O88871+Q9Z0U4); assay: In vitro [35S]GTPγS binding assay in rat cortical membranes; assay type: biochemical; conditions: PAM EC50, [35S]GTPγS binding, read-out: In vitro PAM potency
# T1 construct: from tissue; host or cells: rat brain cortex membranes
# Experimental: In Vitro [^35S]GTPγS Binding Assay in Rat Cortical Membranes
# Cortices of freshly harvested rat brains were dissected on an ice-cold surface and homogenized by a glass Dounce homogeniser immediately in ice-cold buffer containing 50 mM Tris, 5 mM MgCl2 and 1 mM EDTA (pH=7.6). Tissue homogenates were centrifuged at 40000 g for 15 min at 4° C. Membrane pellets were resuspended in the same buffer and membranes were incubated for 10 min at 30° C. in a shaking water bath to eliminate endogenous GABA. Homogenates were centrifuged again under the same conditions. The final pellets were resuspended in ice-cold buffer (pH=7.6) containing 50 mM Tris, 100 mM NaCl, 7 mM MgCl2, 1 mM EDTA and 1 mM dithiotreithol (DTT) to yield a concentration of 20 mg tissue weight/ml and frozen at −70° C. until use. The assay was done in a buffer containing 50 mM Tris (pH=7.4), 100 mM NaCl, 7 mM MgCl2, 1 mM EDTA and 1 mM DTT. Each assay tube contained 150 μL GDP (in a final concentration of 50 μM), 100 μL ligand and 125 μL of the membrane suspension (250 μg tissue/tube). The assay tubes were preincubated for 10 min at 30° C. to assure equilibrium. Nonspecific binding was determined in the presence of 10 μM GTPγS: basal binding was determined in the presence of buffer only. After addition of 50 pM [^35S]GTPγS in a volume of 25 μL to the tubes, membranes were incubated for an additional 60 min at 30° C. The assay was terminated by rapid filtration through Packard UniFilter GF/B using a Packard harvester and washed four times with 1 ml ice-cold buffer. After drying the filters at 40° C. for 1 h, 40 μL Microscint (Packard) was added to the filters and radioactivity of the filters was determined by a TopCount NXT (PerkinElmer, Waltham, Mass.: Alper and Nelson, Eur. J. Pharmacol. 1998, 343, 303-312; Rinken et al, Biochem. Pharmacol. 1999, 57, 155-162). Data thus gathered were used to determine PAM EC50 values for each compound as primary in vitro activity end point.
# adult rats = assay: Foot shock-induced ultrasonic vocalization (USV) in adult rats; assay type: in vivo, rat; conditions: 1 mg/kg per os, 1 h before shocking, male Wistar rats, versus vehicle
# Experimental: Foot Shock-Induced Ultrasonic Vocalization (USV) in Adult Rats
# (§1) Under stressful conditions, adult rats emit 22 kHz ultrasounds that can be reduced by various pharmacological treatments (De Vry et al, Eur. J. Pharmacol. 1993, 249, 331-339; Sanchez, Eur. J. Pharmacol. 2003, 463, 133-143). […] Therefore, a foot shock-induced vocalization paradigm in adult rats was used to assess efficacy of centrally acting GABAB receptor ligands. Behavioral measurements were carried out on male Wistar rats (200-250 g, Toxicoop, Hungary). Rats were housed in groups of four in plastic cages with a wire grid top in a temperature and light-controlled laboratory animal care unit (22±2° C., 12-h light/dark cycle, lights on at 6:00 AM) with ad libitum access to commercial pellet rat food and tap water. Investigations were approved by the Local Ethical Committee of Gedeon Richter Plc. and were carried out in strict compliance with the European Directive 2010/63/EU regarding the care and use of laboratory animals for experimental procedures and all efforts were made to minimize the number of animals as well as their suffering. In order to evoke emission of ultrasounds, animals were footshocked after a habituation period of 30 s (6 shocks, 1 s, 0.8 mA each, inter-shock interval 10 s) in a sound attenuated shocking chamber (Experimetria, 40×40×80 cm). Investigational compounds were administered at the dose of 1 mg/kg in a solid dispersion formulation in distilled water 1 h before shocking per os. Vocalizations were measured right after the last footshock for 10 min with a Metris Sonotrack system and the total time of vocalizations was registered. Vocalization of parallel vehicle treated animals was considered as control value and inhibition percent was calculated for each compound. At approximately 75 min after treatment and behavioral measurements, blood and brain samples were harvested in order to determine exposures associated with in vivo activity.
# [1] = Plasma and brain levels after the USV assay; assay type: in vivo, rat; conditions: 1 mg/kg per os, approximately 75 min after treatment; for brain exposure at 1 mg/kg: rat brain; for plasma exposure at 1 mg/kg: rat plasma
# Experimental: as §1
# In Table 2 compounds of this invention measured in the USV assay are listed. In Table 3 plasma and brain levels of compounds of this invention are listed.
# GABAB receptors = GABAB receptors (Homo sapiens, UniProt O75899+Q9UBS5); conditions: in vitro positive allosteric activity, [35S]GTPγS binding; cited from earlier work
# GABAB receptors, sequence (O75899 42-941): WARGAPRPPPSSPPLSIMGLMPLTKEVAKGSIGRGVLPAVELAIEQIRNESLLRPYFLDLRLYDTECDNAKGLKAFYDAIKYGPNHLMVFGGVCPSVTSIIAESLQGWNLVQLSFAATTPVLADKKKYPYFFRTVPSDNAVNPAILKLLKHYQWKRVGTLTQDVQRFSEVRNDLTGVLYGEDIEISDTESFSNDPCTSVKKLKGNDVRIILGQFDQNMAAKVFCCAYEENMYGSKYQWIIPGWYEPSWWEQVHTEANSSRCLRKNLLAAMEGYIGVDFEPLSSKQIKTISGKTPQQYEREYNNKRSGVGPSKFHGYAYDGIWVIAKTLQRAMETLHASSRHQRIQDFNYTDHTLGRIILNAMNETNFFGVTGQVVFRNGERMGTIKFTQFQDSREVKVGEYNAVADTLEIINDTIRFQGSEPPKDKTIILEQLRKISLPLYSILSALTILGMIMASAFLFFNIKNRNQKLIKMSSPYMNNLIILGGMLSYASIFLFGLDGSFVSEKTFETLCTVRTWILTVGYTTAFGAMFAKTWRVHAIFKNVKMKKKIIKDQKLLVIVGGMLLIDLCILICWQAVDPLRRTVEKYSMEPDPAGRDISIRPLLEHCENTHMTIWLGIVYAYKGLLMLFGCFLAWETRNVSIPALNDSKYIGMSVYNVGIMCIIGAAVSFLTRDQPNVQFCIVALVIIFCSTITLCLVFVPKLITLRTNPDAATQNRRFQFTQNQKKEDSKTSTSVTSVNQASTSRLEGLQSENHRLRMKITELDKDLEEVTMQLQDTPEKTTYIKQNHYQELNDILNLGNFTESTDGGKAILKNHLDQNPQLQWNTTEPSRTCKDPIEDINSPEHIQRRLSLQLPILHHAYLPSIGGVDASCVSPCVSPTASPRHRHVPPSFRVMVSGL
# GABAB receptors, sequence (Q9UBS5 15-961 limits assumed): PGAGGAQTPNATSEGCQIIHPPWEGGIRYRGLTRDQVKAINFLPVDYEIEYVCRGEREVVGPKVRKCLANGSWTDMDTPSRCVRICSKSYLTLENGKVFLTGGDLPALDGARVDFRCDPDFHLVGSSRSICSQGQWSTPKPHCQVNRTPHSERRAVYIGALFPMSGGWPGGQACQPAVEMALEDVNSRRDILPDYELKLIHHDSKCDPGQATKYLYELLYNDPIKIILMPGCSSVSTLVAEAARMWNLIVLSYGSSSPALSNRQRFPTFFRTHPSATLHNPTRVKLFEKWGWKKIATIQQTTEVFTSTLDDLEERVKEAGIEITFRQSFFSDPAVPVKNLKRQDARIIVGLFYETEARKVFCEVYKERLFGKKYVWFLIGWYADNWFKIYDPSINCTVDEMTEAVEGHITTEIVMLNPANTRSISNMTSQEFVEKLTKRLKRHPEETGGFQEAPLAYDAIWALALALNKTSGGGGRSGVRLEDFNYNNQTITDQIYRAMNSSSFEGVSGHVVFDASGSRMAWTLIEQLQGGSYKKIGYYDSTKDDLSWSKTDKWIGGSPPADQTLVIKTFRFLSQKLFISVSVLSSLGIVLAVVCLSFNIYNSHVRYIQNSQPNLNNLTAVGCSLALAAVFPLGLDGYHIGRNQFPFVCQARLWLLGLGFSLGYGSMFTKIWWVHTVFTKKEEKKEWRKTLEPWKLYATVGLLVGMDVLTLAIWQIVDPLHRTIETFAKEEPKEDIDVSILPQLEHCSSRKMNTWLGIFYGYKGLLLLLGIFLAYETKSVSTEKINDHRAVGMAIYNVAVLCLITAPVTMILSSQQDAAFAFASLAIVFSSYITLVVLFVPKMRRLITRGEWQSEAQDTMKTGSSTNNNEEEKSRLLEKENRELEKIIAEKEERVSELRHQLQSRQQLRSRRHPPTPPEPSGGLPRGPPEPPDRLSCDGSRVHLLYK
# T1 sequence (O88871 41-940): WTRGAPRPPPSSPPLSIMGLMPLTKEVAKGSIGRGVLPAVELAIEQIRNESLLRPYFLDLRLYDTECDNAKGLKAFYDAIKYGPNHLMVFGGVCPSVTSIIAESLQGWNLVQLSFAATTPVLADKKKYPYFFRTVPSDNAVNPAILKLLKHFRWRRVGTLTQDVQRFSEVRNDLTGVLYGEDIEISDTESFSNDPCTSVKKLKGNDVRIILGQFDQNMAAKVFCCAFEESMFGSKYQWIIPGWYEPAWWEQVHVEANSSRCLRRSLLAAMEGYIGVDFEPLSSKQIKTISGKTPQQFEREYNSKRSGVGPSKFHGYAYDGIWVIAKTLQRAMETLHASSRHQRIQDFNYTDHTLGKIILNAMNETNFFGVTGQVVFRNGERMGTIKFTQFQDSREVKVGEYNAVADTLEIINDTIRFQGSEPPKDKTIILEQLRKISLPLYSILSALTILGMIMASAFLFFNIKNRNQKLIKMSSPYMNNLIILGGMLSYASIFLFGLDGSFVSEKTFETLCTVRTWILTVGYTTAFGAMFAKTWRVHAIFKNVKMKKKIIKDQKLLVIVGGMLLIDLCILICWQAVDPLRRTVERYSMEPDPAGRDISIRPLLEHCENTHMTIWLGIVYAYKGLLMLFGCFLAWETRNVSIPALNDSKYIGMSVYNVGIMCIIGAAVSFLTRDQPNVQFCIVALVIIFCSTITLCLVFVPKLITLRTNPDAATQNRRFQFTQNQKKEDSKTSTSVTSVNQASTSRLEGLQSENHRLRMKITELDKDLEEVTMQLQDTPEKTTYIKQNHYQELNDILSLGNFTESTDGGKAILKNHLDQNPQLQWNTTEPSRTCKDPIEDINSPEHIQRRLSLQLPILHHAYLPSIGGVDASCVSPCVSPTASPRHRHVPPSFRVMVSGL
# T1 sequence (Q9Z0U4 17-960 limits assumed): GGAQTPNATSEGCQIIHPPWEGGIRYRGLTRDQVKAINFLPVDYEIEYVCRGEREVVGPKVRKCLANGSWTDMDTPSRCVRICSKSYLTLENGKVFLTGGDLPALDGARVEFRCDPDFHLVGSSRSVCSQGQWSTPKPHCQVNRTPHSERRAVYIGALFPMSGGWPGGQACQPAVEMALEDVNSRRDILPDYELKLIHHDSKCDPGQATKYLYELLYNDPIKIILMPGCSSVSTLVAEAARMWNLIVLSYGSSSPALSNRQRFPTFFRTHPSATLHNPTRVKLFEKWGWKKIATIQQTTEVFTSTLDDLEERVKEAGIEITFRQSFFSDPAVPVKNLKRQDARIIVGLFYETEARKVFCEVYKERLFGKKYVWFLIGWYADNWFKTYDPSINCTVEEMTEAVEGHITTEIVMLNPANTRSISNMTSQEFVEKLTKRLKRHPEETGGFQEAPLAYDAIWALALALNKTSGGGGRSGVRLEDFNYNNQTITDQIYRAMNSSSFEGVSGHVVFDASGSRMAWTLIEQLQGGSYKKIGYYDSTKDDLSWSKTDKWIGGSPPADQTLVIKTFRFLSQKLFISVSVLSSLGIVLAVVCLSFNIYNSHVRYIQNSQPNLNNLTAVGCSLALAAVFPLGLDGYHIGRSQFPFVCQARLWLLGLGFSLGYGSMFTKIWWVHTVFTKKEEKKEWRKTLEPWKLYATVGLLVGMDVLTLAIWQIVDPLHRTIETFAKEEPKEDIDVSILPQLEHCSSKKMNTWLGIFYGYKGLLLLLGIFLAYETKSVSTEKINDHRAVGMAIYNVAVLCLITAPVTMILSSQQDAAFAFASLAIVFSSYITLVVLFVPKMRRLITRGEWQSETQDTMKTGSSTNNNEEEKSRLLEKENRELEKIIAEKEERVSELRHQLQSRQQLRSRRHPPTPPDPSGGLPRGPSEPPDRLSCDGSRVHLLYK
EC50 (GABAB receptor) [nM],brain exposure at 1 mg/kg [1] [ng/g],plasma exposure at 1 mg/kg [1] [ng/mL],SMILES,USV inhibition at 1 mg/kg (%) (adult rats),binding potency (Faghih et al.) (GABAB receptors)
< 1,18,58,"Cc1nc2cc([C@H]3CC[C@H](C(F)(F)F)CC3)nn2c(N2CCC[C@@](C)(C(=O)O)C2)c1C(C)C [Example 3, (3R)-3-methyl-1-[5-methyl-6-(propan-2-yl)-2-[trans-4-(trifluoromethyl)cyclohexyl]-pyrazolo [1,5-a]pyrimidin-7-yl]piperidine-3-carboxylic Acid]",100,
1 to 10,68,146,Cc1nc2cc([C@H]3CC[C@H](C(F)(F)F)CC3)nn2c(N2CCC[C@](C)(C(=O)O)C2)c1C(C)C [Example 11],71,
1 to 10,35,207,C[C@@]1(C(=O)O)CCCN(c2c3c(nc4cc([C@H]5CC[C@H](C(F)(F)F)CC5)nn24)CCCCC3)C1 [Example 35],57,

# More lines, now with the values behind:
SMILES,EC50 (GABAB receptor) [nM],brain exposure at 1 mg/kg [1] [ng/g],plasma exposure at 1 mg/kg [1] [ng/mL],USV inhibition at 1 mg/kg (%) (adult rats),binding potency (Faghih et al.) (GABAB receptors)
CCC(c1ccc(Cl)cc1)c1cc2nc(C)cc(N3CCCCC3CCO)n2n1 (stereo not drawn) [Example 3-1],,,,,nanomolar
CCCC(c1ccc(Cl)cc1)c1cc2nc(C)cc(N3CCCCC3CCO)n2n1 (stereo not drawn) [Example 5-1],,,,,nanomolar
Cc1cc(N2CCCCC2CCO)n2nc(CC34CC5CC(CC(C5)C3)C4)cc2n1 (stereo not drawn) [Example 7-1],,,,,high micromolar

# From patent publication US11026946B2, “Pharmacologically active alicyclic-substituted pyrazolo[1,5-a]pyrimidine derivatives” (RICHTER GEDEON NYRT., priority 2017, dated 2021)
